PMC4519045 (PLoS ONE, 2015)
Entries after “also recorded” stand apart in the source; their conditions may differ. One block for each compound: values may come before it.

What was measured:
citrate-plasma = conditions: human, RT (25 ± 1°C)
P800 plasma = conditions: human, RT (25 ± 1°C), up to 96 hours
heparin-plasma = conditions: human, RT (25 ± 1°C)
[1] = conventional serum sample; conditions: human, RT (25 ± 1°C), up to 96 hours
EDTA plasma = conditions: human, RT (25 ± 1°C), up to 96 hours
[2] = in vivo circulation; cited from earlier work
purified DPP-IV enzyme = experiment: 50 mM HEPES buffer (pH7.5); conditions: 37°C, up to 48 hours

cleaved bond (citrate-plasma): A8-E9, major, 30 minutes
cleaved bond (P800 plasma): A8-E9, minor, after 3-day incubation
cleaved bond (heparin-plasma): A8-E9, major
cleaved bond [1]: A8-E9, major, 30 minutes
not cleaved [1]: no G36A-1C
cleaved bond (EDTA plasma): A8-E9, major, 30 minutes
Compound: HA/EGTFTSDVSSYLEGQAAKEFIAWLVKGR-NH2

Compound: glucagon-like peptide 1 [GLP-1]
half-life in circulation [2]: approximately 2 minutes

cleaved bond (EDTA plasma): A8-E9, 30 minutes
Compound: HA/EGTFTSDVSSYLEGQAAKEFIAWLVKGR-OH
cleaved bond [1]: A8-E9, 30 minutes; also recorded: G35-R36, 30 minutes

Compound: HS/QGTFTSDYSKYLDSRRAQDFVQWLMNTKRNRNNIA
cleaved bond (purified DPP-IV enzyme): S2-Q3, first_seen, 24 hours; also recorded: G4-T5, 48 h

cleaved bond [1]: A2-E3, major
cleaved bond (EDTA plasma): A2-E3, major, two hours
Compound: YA/EGTFISDYSIAMDKIHQQDFVNWLLAQKGKKNDWKHNITQ
not cleaved (P800 plasma): without any GIP degradation fragments detectable during 4-day incubation at RT; t½ > 96 hours

cleaved bond (citrate-plasma): A8-E9, major
cleaved bond (P800 plasma): A8-E9, minor, after 3-day incubation
cleaved bond (heparin-plasma): A8-E9, major
cleaved bond (EDTA plasma): A8-E9, major, 1h
Compound: HA/EGTFTSDVSSYLEGQAAKEFIAWLVKGRG

Compound: HSQGTFTSDYSKYLDSRRAQDFVQWLMNTKRNKNNIA
not cleaved (P800 plasma): fragments not detectable during 3-day incubation; full-length OXM stabilized for more than three days

Compound: CC[C@H](C)[C@H](NC(=O)[C@H](CO)NC(=O)[C@H](Cc1ccc(O)cc1)NC(=O)[C@H](CC(=O)O)NC(=O)[C@H](CO)NC(=O)[C@@H](NC(=O)[C@H](Cc1ccccc1)NC(=O)[C@@H](NC(=O)CNC(=O)[C@H](CCC(=O)O)NC(=O)[C@H](C)NC(=O)[C@@H](N)Cc1ccc(O)cc1)[C@@H](C)O)[C@@H](C)CC)C(=O)N[C@@H](C)C(=O)N[C@@H](CCSC)C(=O)N[C@@H](CC(=O)O)C(=O)N[C@@H](CCCCN)C(=O)N[C@H](C(=O)N[C@@H](Cc1c[nH]cn1)C(=O)N[C@@H](CCC(N)=O)C(=O)N[C@@H](CCC(N)=O)C(=O)N[C@@H](CC(=O)O)C(=O)N[C@@H](Cc1ccccc1)C(=O)N[C@H](C(=O)N[C@@H](CC(N)=O)C(=O)N[C@@H](Cc1c[nH]c2ccccc12)C(=O)N[C@@H](CC(C)C)C(=O)N[C@@H](CC(C)C)C(=O)N[C@@H](C)C(=O)N[C@@H](CCC(N)=O)C(=O)N[C@@H](CCCCN)C(=O)NCC(=O)N[C@@H](CCCCN)C(=O)N[C@@H](CCCCN)C(=O)N[C@@H](CC(N)=O)C(=O)N[C@@H](CC(=O)O)C(=O)N[C@@H](Cc1c[nH]c2ccccc12)C(=O)N[C@@H](CCCCN)C(=O)N[C@@H](Cc1c[nH]cn1)C(=O)N[C@@H](CC(N)=O)C(=O)N[C@H](C(=O)N[C@H](C(=O)N[C@@H](CCC(N)=O)C(=O)O)[C@@H](C)O)[C@@H](C)CC)C(C)C)[C@@H](C)CC [GIP(1–42), glucose-dependent insulinotropic polypeptide]
half-life in circulation [2]: ~5 min
